In US5084468A, “DC-88A derivatives” (Kyowa Hakko Kogyo Co., Ltd., priority 1988, dated 1992):
Like-named read-outs stand apart in the source and are kept apart here.

Legend:
various bacteria = conditions: cited from earlier work
[1] = system: lymphocytic leukemia P388; conditions: lymphocytic leukemia P388, etc.; cited from earlier work
HeLa S3 cells = test: Growth inhibition of HeLa S3 cells (neutral red, 72 hours); type: cell-based; conditions: Homo sapiens, read-out: IC50 (drug concentration which inhibited growth of HeLa S3 cells by 50%)
Description: Test on Growth Inhibition of HeLa S3 cells
HeLa S3 cells diluted to 3 x 10^4 cells/ml with MEM medium containing 10% calf fetal serum and 2 mM glutamine were separately distributed by 0.1 ml each in each well of a 96 well microtiter plate.
After culturing at 37° C. overnight in a CO2 -incubator, 0.05 ml each of a test sample appropriately diluted with MEM medium was added to each well.
After culturing the cells for 72 hours in the CO2 -incubator, the culture supernatant was removed. After washing once with phosphate buffered physiological saline (PBS), 0.1 ml each of MEM medium containing 0.02% neutral red was added to each well and then cultured at 37° C. for an hour in the CO2 -incubator to stain the cells. After removing the culture supernatant, the cells were washed once with physiological saline, and the dye was extracted with 0.001N HCl/30% ethanol. Absorbance at […] of the extract was measured with a microplate reader. By comparing absorbance of extract of intact cells with that of the cells treated with a test compound in known concentrations, IC50, i.e. a drug concentration which inhibited growth of the cells by 50% was determined.

dd strain male mice = type: in vivo; conditions: intraperitoneal, 14 days observation
Description: Using dd strain male mice weighing 20±1 g, a test compound was intraperitoneally administered. MLD (the minimum lethal dose) was determined by observing the mortality for 14 days after administration.

[2] = HeLa S3 cells, 72 hours, neutral red staining

| SMILES | IC50 (HeLa S3 cells; HeLa S3, 72 h) [nM] | Acute Toxicity (MLD), minimum lethal dose (dd strain male mice) [mg/kg] | IC50 (HeLa S3 cells; [2]) [nM] | also measured |
| --- | --- | --- | --- | --- |
| COC(=O)C1(C)NC2=C(C1=O)C13CC1CN(C(=O)c1cc4cc(OC)c(OC)c(OC)c4[nH]1)C3=CC2=O (stereo not shown) [DC-88A] |  |  |  | antibacterial activity (various bacteria): antibacterial activity against various bacteria; antitumor activity against lymphocytic leukemia P388 [1]: antitumor activity against lymphocytic leukemia P388 |
| COC(=O)C1(C)Nc2c(O)cc3c(c2C1=O)C(CBr)CN3C(=O)/C=C/c1cccc(OC)c1 (stereo not shown) [Compound 28] | 2.5 | 0.16 |  |  |
| COC(=O)C1(C)NC2=C(C1=O)C13CC1CN(C(=O)/C=C/c1cccc(OC)c1)C3=CC2=O (stereo not shown) [Compound 27] |  |  | 0.6 |  |
| COC(=O)C1(C)NC2=C(C1=O)C13CC1CNC3=CC2=O (stereo not shown) [Compound 18] |  |  | 3900 |  |
| COC(=O)C1(C)NC2=C(C1=O)C13CC1CN(C(=O)c1cc4cc(NC(=O)OC(C)(C)C)ccc4[nH]1)C3=CC2=O (stereo not shown) [Compound 32] |  | 0.25 |  |  |
| COC(=O)C1(C)Nc2c(O)cc3c(c2C1=O)C(CBr)CN3C(=O)COc1ccccc1 (stereo not shown) [Compound 15] | 3.1 | 4.0 |  |  |
| COC(=O)C1(C)Nc2c(O)cc3c(c2C1=O)C(CBr)CN3C(=O)c1cc2cc(OC)c(OCc3ccccc3)c(OC)c2[nH]1 (stereo not shown) [Compound 55] | 0.52 | 0.25 |  |  |
| COC(=O)C1(C)Nc2c(O)cc3c(c2C1=O)C(CBr)CN3C(C)=O (stereo not shown) [Compound 22] |  | 13 |  |  |
| COC(=O)C1(C)Nc2c(O)cc3c(c2C1=O)C(CBr)CN3C(=O)/C=C/c1ccc(C=O)cc1 (stereo not shown) [Compound 42] |  | 2.5 |  |  |
| COC(=O)C1(C)Nc2c(O)cc3c(c2C1=O)C(CBr)CN3C(=O)c1cc2ccccc2s1 (stereo not shown) [Compound 26] |  | 2.2 |  |  |
| COC(=O)C1(C)Nc2c(O)cc3c(c2C1=O)C(CBr)CN3C(=O)c1cc2cc(OC)ccc2[nH]1 (stereo not shown) [Compound 3] |  | 0.063 |  |  |
| COC(=O)C1(C)Nc2c(O)cc3c(c2C1=O)C(CBr)CN3C(=O)/C=C/c1ccc(NC(C)=O)cc1 (stereo not shown) [Compound 37] |  |  | 0.74 |  |
| COC(=O)C1(C)Nc2c(O)cc3c(c2C1=O)C(CBr)CN3C(=O)/C=C/c1cccc(OC(C)=O)c1 (stereo not shown) [Compound 35] | 0.94 | 0.25 |  |  |
| COC(=O)C1(C)Nc2c(O)cc3c(c2C1=O)C(CBr)CN3C(=O)/C=C/c1ccc(OC)cc1 (stereo not shown) [Compound 38] | 0.035 | 0.063 |  |  |
| COC(=O)C1(C)Nc2c(O)cc3c(c2C1=O)C(CI)CN3C(=O)c1cc2cc(OC)c(OC)c(OC)c2[nH]1 (stereo not shown) [Compound 5] |  |  | 0.011 |  |
| COC(=O)C1(C)Nc2c(O)cc3c(c2C1=O)C(CBr)CN3C(=O)Nc1ccccc1 (stereo not shown) [Compound 9] |  |  | 2.6 |  |
| COC(=O)C1(C)Nc2c(O)cc3c(c2C1=O)C(CBr)CN3C(=O)/C=C/c1ccc([N+](=O)[O-])cc1 (stereo not shown) [Compound 41] |  | 1.3 |  |  |
| COC(=O)C1(C)NC2=C(C1=O)C13CC1CN(C(=O)COc1ccccc1)C3=CC2=O (stereo not shown) [Compound 14] |  |  | 6.7 |  |
| COC(=O)C1(C)Nc2c(O)cc3c(c2C1=O)C(CBr)CN3C(=O)/C=C/c1ccccc1 (stereo not shown) [Compound 7] | 5.7 | 1.0 |  |  |
| COC(=O)C1(C)Nc2c(O)cc3c(c2C1=O)C(CBr)CN3C(=O)/C=C/c1ccc(OC)c(OC)c1 (stereo not shown) [Compound 30] | 0.034 | 0.082 |  |  |

| SMILES | IC50 (HeLa S3 cells; HeLa S3, 72 h) [nM] | Acute Toxicity (MLD), minimum lethal dose (dd strain male mice) [mg/kg] | IC50 (HeLa S3 cells; [2]) [nM] | also measured |
| --- | --- | --- | --- | --- |
| COC(=O)C1(C)NC2=C(C1=O)C13CC1CN(C(=O)/C=C/c1ccc(OC)c(OC)c1)C3=CC2=O (stereo not shown) [Compound 29] | < 0.024 |  |  |  |
| COC(=O)C1(C)Nc2c(O)cc3c(c2C1=O)C(CBr)CN3C(=O)c1cc2ccccc2o1 (stereo not shown) [Compound 4] | 0.1 | 0.25 |  |  |
| COC(=O)C1(C)Nc2c(O)cc3c(c2C1=O)C(CBr)CN3C(=O)CCc1ccc(OC)c(OC)c1 (stereo not shown) [Compound 39] |  | 1.3 |  |  |
| COC(=O)C1(C)Nc2c(O)cc3c(c2C1=O)C(CBr)CN3C(=O)c1cc2cc(NC(=O)c3cc4ccccc4o3)ccc2[nH]1 (stereo not shown) [Compound 46] | 0.4 | 0.63 |  |  |
| COC(=O)C1(C)NC2=C(C1=O)C13CC1CN(C(=O)Nc1ccccc1)C3=CC2=O (stereo not shown) [Compound 8] |  |  | 3.2 |  |
| COC(=O)C1(C)Nc2c(O)cc3c(c2C1=O)C(CBr)CN3C(=O)c1cc2cc(NC(=O)c3cc4ccccc4[nH]3)ccc2[nH]1 (stereo not shown) [Compound 45] | 1.1 | 0.63 |  |  |
| COC(=O)C1(C)Nc2c(O)cc3c(c2C1=O)C(CBr)CN3C(=O)c1cc2ccccc2[nH]1 (stereo not shown) [Compound 2] | 0.054 | 0.25 |  |  |
| COC(=O)C1(C)Nc2c(O)cc3c(c2C1=O)C(CBr)CN3C(=O)/C=C/c1ccc(NC(=O)OCc2ccccc2)cc1 (stereo not shown) [Compound 36] |  | 1.3 |  |  |
| COC(=O)C1(C)Nc2c(O)cc3c(c2C1=O)C(CBr)CN3C(=O)/C=C/c1ccc(N)cc1 (stereo not shown) [Compound 48] |  |  | 1.2 |  |
| COC(=O)C1(C)Nc2c(O)cc3c(c2C1=O)C(CBr)CN3C(=O)C1Cc2ccccc2N1 (stereo not shown) [Compound 31] |  | 20 | 81 |  |
| COC(=O)C1(C)Nc2c(O)cc3c(c2C1=O)C(CBr)CN3C(=O)c1cc2cc(OC)ccc2o1 (stereo not shown) [Compound 34] | 0.05 | 0.063 |  |  |
| COC(=O)C1(C)NC2=C(C1=O)C13CC1CN(C(=O)/C=C/c1ccccc1)C3=CC2=O (stereo not shown) [Compound 6] |  |  | 2.3 |  |
| COC(=O)C1(C)NC2=C(C1=O)C13CC1CN(C(=O)c1cc4ccccc4s1)C3=CC2=O (stereo not shown) [Compound 25] |  |  | 7.6 |  |
| COC(=O)C1(C)NC2=C(C1=O)C13CC1CN(C(=O)c1cc4cc(OC)c(OC)cc4[nH]1)C3=CC2=O (stereo not shown) [Compound 23] |  |  | < 0.024 |  |
| COC(=O)C1(C)NC2=C(C1=O)C13CC1CN(C(=O)c1cc4ccccc4[nH]1)C3=CC2=O (stereo not shown) [Compound 1] |  |  | 1.1 |  |
| COC(=O)C1(C)Nc2c(O)cc3c(c2C1=O)C(CBr)CN3C(=O)/C=C/c1ccc(N(C)C)cc1 (stereo not shown) [Compound 40] | 0.085 | 0.31 |  |  |
| COC(=O)C1(C)Nc2c(O)cc3c(c2C1=O)C(CBr)CN3C(=O)c1cc2cc(OC)c(OC)cc2[nH]1 (stereo not shown) [Compound 24] | 0.024 | 0.25 |  |  |
| COC(=O)C1(C)Nc2c(O)cc3c(c2C1=O)C(CBr)CN3C(=O)CNc1ccccc1 (stereo not shown) [Compound 19] |  | 2.5 |  |  |
| COC(=O)C1(C)Nc2c(O)cc3c(c2C1=O)C(CBr)CN3C(=O)c1cc2cc(N)ccc2[nH]1 (stereo not shown) [Compound 33] |  |  | 0.88 |  |
